Experimental data reported in patent US8394404B2, “Adhesive material and adhesive preparation” (Nitto Denko Corporation, priority 2004, dated 2013).
Entries after “also recorded” stand apart in the source; their conditions may differ.

Experiment: in vitro permeability test using the skin removed from a mouse
Type: in vitro ADME
Conditions: adhesive preparation of the adhesive material of Example 3 with adhesive layer containing 5% ISDN
Procedure: Thus, the adhesive preparation of the present invention is useful as a percutaneously absorbable adhesive preparation for continuous administration of a drug into the body.
An adhesive preparation comprising the adhesive material of the above-mentioned Example 3, which has an adhesive layer containing 5% isosorbide dinitrate (ISDN) was prepared and subjected to an in vitro permeability test using the skin removed from a mouse.

## O=[N+]([O-])O[C@H]1CO[C@H]2[C@@H]1OC[C@H]2O[N+](=O)[O-] [ISDN, isosorbide dinitrate]
  percutaneous absorption of ISDN: percutaneous absorbability of ISDN was confirmed; also recorded: percutaneous absorption of ISDN was confirmed
